Experimental data reported in PubChem BioAssay AID179 (DTP/NCI, 2004).
Several values for one entry are separate records, joined by “and”; a condition that tells them apart may be missing. Identical values can stand only once. Activity calls are given as the source filed them.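 The calls were made as follows: active = compounds giving half or more protection of infected cells from virus-caused growth loss, again on retest; inactive = the rest.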 *1 amine or outer side, *2 acyl side, *3 side chain or, on linkers, in order; H or OH if unused. Where a SMILES comes first, the peptide text is derived from it. Bridges are numbered along the chain shown (N, C = ends). [ ]: non-standard residue; d: D form. The star is where a group is joined. Fmoc = O=C(OCC1c2ccccc2-c2ccccc21)*; X2 = O=C(C(CCCCNO[*:3])N[*:1])[*:2]; Boc = CC(C)(C)OC(=O)*; OcHex = C1CCC(O*)CC1

Tested on: CEM cells HIV-1 protection, formazan growth assay
Experiment: NCI AIDS Antiviral Assay
Details: for IC50: measured here: growth of uninfected CEM cells
Procedure, shortened: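 Human CEM cells, uninfected and HIV-1-infected, exposed to five drug concentrations; growth measured by soluble formazan assay and scored as percent protection from infection, with protecting compounds retested.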

Compound | EC50 [µM] | IC50 | outcome
C(=C/[PH+](c1ccccc1)c1ccccc1)/[PH+](c1ccccc1)c1ccccc1.C(=C/[PH+](c1ccccc1)c1ccccc1)/[PH+](c1ccccc1)c1ccccc1.C(=C/[PH+](c1ccccc1)c1ccccc1)/[PH+](c1ccccc1)c1ccccc1.[Pt] | > 5.25 | 3.24 µM | –
O=[N+]([O-])c1cccc(C2ON2C2CCCCC2)c1 (stereo unspecified) | > 89.1 | 5.01 µM | –
N#Cc1sc2c(c1O)c(=O)n(-c1ccccc1)c(=S)n2-c1ccccc1 | > 661 | 30.9 µM | –
[N-]=[N+]=Nc1c([N+](=O)[O-])c(=O)n(-c2ccccc2)c2ccccc12 | > 200 | 13.5 µM | –
CC1=NNC(=O)C1C1C(=O)NN=C(c2c[nH]c3ccccc23)C1Br (stereo unspecified) | > 200 | 95.5 µM | –
COc1ccc2[nH]c3c(c2c1)COc1ccccc1C3=O | > 200 | > 200 µM | –
COC(=O)CSSCc1ccc([N+](=O)[O-])cc1 | > 200 | 3.47 µM | –
O=C(c1ccccc1)N1N=C(C(F)(F)F)CC1(O)C(F)(F)F (stereo unspecified) | > 200 | > 200 µM | –
S=C1NNC2(C(=S)N1)c1ccccc1-c1ccccc12 | > 200 | 87.1 µM | –
Cc1cccc(N=NC(=O)NNc2cccc(C)c2C)c1C | > 200 | 70.8 µM | –
FC(F)C(F)(F)N1c2ccccc2Sc2ccccc21 | > 200 | 72.4 µM | –
CC(Oc1ccc(OCC2CCCCC2)cc1)C(=O)NCc1ccco1 (stereo unspecified) | > 28.2 | > 28.2 µM | –
CC(C)CC(NC(=O)OC(C)(C)C)C(=O)NC(CCC(=O)OC1CCCCC1)C(N)=O (stereo not drawn) (Boc-Leu-Glu(OcHex)-NH2; configuration not given here) | > 200 | 126 µM | –
NS(=O)(=O)c1ccc(Nc2c3ccc(Cl)cc3nc3ncccc23)cc1 | – | – | inactive
COC(OC)c1c2c(O)c3c(O)c(C)c4c(c3c1O)C(=O)C(C)(O/C=C/C(OC)C(C)C(OC(C)=O)C(C)C(O)C(C)C(O)C(C)/C=C/C=C(/C)C(=O)N2)O4 (stereo unspecified) | > 200 | 25.1 µM | –
c1ccc(N2N=NC3C4CC(C5CCCC54)C32)cc1 (stereo unspecified) | > 200 | > 100 µM | –
Cc1c(C)c2cc3c(cc2oc1=O)OCC3 | > 83.2 | 55 µM | –
C[N+]12C=CC=C1C(N1CCCC1)c1scc(-c3ccc(Br)cc3)c12 (stereo unspecified) | > 200 | 10.7 µM | –
CC1=C2CC/C(C)=C/CCC3(C)OC3CC/C(C)=C/C2OC1=O (stereo unspecified) | > 200 | > 200 µM | –
CCOc1ccc(N=Cc2ccnc3ccccc23)cc1 | – | – | inactive
O=[N+]([O-])c1nccn1CC1OC(n2ccnc2[N+](=O)[O-])C(O)C(O)C1O (stereo unspecified) | > 200 | > 200 µM | –
C/C(CCO)=N\NC(N)=S | > 200 | > 200 µM | –

Compound | EC50 [µM] | IC50 | outcome
CC12OC3(C)c4ccccc4OP3(c3ccccc3)(Oc3ccccc31)O2 (stereo unspecified) | > 79.4 | > 79.4 µM | –
CC(=O)OC1COC(n2c(-c3ccc(Cl)cc3)cc(-c3ccccc3)c(C#N)c2=S)C(OC(C)=O)C1OC(C)=O (stereo unspecified) | > 200 | > 200 µM | –
O=c1oc2ccccc2c(O)c1C(c1ccc2c(c1)Cc1ccccc1-2)c1c(O)c2ccccc2oc1=O | > 200 | 46.8 µM | –
O=C1CCC2SC1CCC2=O | > 200 | > 200 µM | –
CC1=C(C2=C(C)C(=O)C(=O)c3cc(C)ccc32)c2ccc(C)cc2C(=O)C1=O | > 200 | 0.0631 µM | –
c1c[nH]c(C23C4C5C6C4C2C6C53)n1 (stereo unspecified) | > 200 | > 200 µM | –
c1ccc2c(c1)Cc1cn3ncnc3nc1-2 | > 200 | > 200 µM | –
CN1CNc2nc(N)n(C)c(=O)c2C1 | > 200 | > 200 µM | –
Cc1c(C(=N)C(C#N)C#N)c(=N)oc2c1ccc1ccccc12 | > 200 | 26.9 µM | –
Cn1ncc(=O)[nH]c1=S | > 200 | > 200 µM | –
CCOC(=O)N1c2c(ccn2C)-c2ccn(C)c2N1C(=O)OCC | > 15.1 | 5.89 µM | –
O=C(O)c1cc2c(cn1)[nH]c1ccccc12 | – | – | inactive
Cc1ccc(S(=O)(=O)N2c3ccccc3[C@H]3CCC=C[C@H]32)cc1 | > 100 | 6.92 µM | –
N#Cc1c(N)n(-c2nc3ccccc3s2)c(=O)c2cc([N+](=O)[O-])ccc12 | > 100 | 12 µM | –
CN(C)c1ccc(C2CC(=O)CC(c3ccc(N(C)C)cc3)C23C(=O)NC(=O)NC3=O)cc1 (stereo unspecified) | > 25.1 | > 25.1 µM | –
O=C(c1cc2ccccc2[nH]1)C(O)(c1cc2ccccc2[nH]1)c1cc2ccccc2[nH]1 | > 9.33 | > 9.33 µM | –
NC(=S)NNCC(=O)CC(O)(C(F)(F)F)C(F)(F)Cl (stereo unspecified) | > 200 | 123 µM | –
CCOC(=O)/C(C(N)=O)=C(/O)c1cnccn1 | > 200 | > 200 µM | –
Cn1c2cc(Cl)ccc2c2ccc3c(c21)C(=O)C=CC3=O | > 200 | 4.17 µM | –
O=c1[nH]nc(-c2ccc([N+](=O)[O-])cc2)[nH]1 | > 200 | > 200 µM | –
CCS1=C2C(=O)CC(C)(C)CC2=Nc2ccccc21 (stereo unspecified) | > 200 | > 200 µM | –
CCOC(=O)c1sc2nc(SC)nc3c2c1NCN3C1CC1 | > 100 | > 100 µM | –

Compound | EC50 [µM] | IC50 | outcome
COC(=O)c1cnc2nc(N3CCOCC3)[nH]n2c1=O | > 12.9 | > 12.9 µM | –
CCCS(=O)OC1C(C2COC(C)(C)O2)OC2OC(C)(C)OC21 (stereo unspecified) | > 200 | 95.5 µM | –
CCOC(=O)/C(=C\c1cccc(C#N)c1)[Se]c1ccccc1 | > 52.5 | > 52.5 µM | –
O=[N+]([O-])O[C@H]1CO[C@H]2[C@@H]1OC[C@H]2O[N+](=O)[O-] | > 200 | > 200 µM | –
Cc1cccc(C(O)c2ccccn2)c1O (stereo unspecified) | > 200 | > 200 µM | –
Cc1cc(C)nc(NS(=O)(=O)c2ccc(N=c3c4ccccc4n(Cc4ccccc4)c4ccccc34)cc2)n1 | – | – | inactive
COC(=O)C1=CC2C=CC(C1C(=O)OC)C1C(C(=O)OC)=C(C(=O)OC)C(C(=O)OC)=C(C(=O)OC)C21OC (stereo unspecified) | – | – | inactive
CCN(CC)CCOc1ccc(S(=O)(=O)c2ccc(OCCN(CC)CC)cc2)cc1 | > 200 | 39.8 µM | –
Oc1[nH]c2ccccc2c1N=NC(=S)Nc1cccc(Cl)c1 | > 200 | 4.57 µM | –
Cc1ccc(S(=O)(=O)N2CCC(C(=O)O)=Cc3c2[nH]c(=O)n(-c2ccccc2)c3=O)cc1 | > 288 | > 288 µM | –
O=C(O)Cc1ccc(N2N=C(c3ccccc3)CC2=O)cc1 | > 200 | > 200 µM | –
CN(C)c1nc(=NCc2ccncc2)ss1 | > 200 | 10.7 µM | –
CC1(C)O[C@]2(C=C[C@@H]1O)CCCCO2 | > 251 | > 251 µM | –
COC1(C)C(=O)NC(=O)N(C2C=CC(CO)O2)C1O (stereo unspecified) | 7.41 | 170 µM | –
CC(=O)OCC1OC(Sc2nc(-c3ccc(Cl)cc3)c(C#N)c(=O)n2C2OC(COC(C)=O)C(OC(C)=O)C(OC(C)=O)C2OC(C)=O)C(OC(C)=O)C(OC(C)=O)C1OC(C)=O (stereo unspecified) | > 100 | 18.6 µM | inactive
C[C@@]1(CO)[C@H](O)CC[C@@]2(C)[C@H]1CC[C@H]1C[C@@H]3C[C@@]12CC[C@@]3(O)COC(=O)CN | > 575 | 0.331 µM | –
O=c1cc(-c2ccccc2)[nH]c(=S)[nH]1 | > 200 | > 200 µM | –
CC[C@@]1(O)C(=O)OCc2c1cc1n(c2=O)Cc2cc3ccccc3nc2-1 | > 0.1 | 0.0162 µM | –
COc1cc(-c2nc(N)c(C#N)c3c2CCS(=O)(=O)c2ccc(C)cc2-3)cc(OC)c1OC | > 200 | > 200 µM | –
COc1nc2c(c(=O)n1C)N=C(c1ccc(Cl)cc1)CC(c1ccccc1)N2 (stereo unspecified) | > 200 | 30.9 µM | –
C1CSCC2(COC2)CSCCSCC2(COC2)CS1 | > 14.8 | > 14.8 µM | –
O=C(O)CSC(NC(=O)C(C(F)(F)F)C(F)(F)F)(C(F)(F)F)C(F)(F)F | > 200 | > 200 µM | –

Compound | EC50 [µM] | IC50 | outcome
CC1(C)CCCCC1/C=C/C(CC(O)(C(F)(F)F)C(F)(F)F)=N\Nc1ccc([N+](=O)[O-])cc1[N+](=O)[O-] (stereo unspecified) | > 2 | 0.468 µM | –
O=C(O)C1=C(C(=O)O)C2CCC1C2 | > 200 | > 200 µM | –
CC(=O)Nc1ccccc1S(=O)(=O)c1ccccc1 | 302 | 324 µM | –
CCN(CC)CCOc1ccc(/C=C(\C#N)c2ccc(OCCN(CC)CC)cc2)cc1 | > 53.7 | 3.72 µM and 6.92 µM | –
COc1ccc(/C=C/C(=O)c2c(-c3ccccc3)nn(C)c(=O)c2N2CCCCC2)cc1 | 15.8 | 19.1 µM | –
O=C1C(=Cc2ccccc2O)N=C(c2ccccc2)N1n1c(-c2ccccc2)nc2ccccc2c1=O | > 200 | 10.2 µM | –
Nc1nc(N)c(N=Nc2ccc(S(=O)(=O)NC(=O)c3ccccc3)cc2)c(=O)[nH]1 | > 200 | > 200 µM | –
CC1=NC(C(C)C)C(=O)O1 (stereo unspecified) | > 891 | > 891 µM | –
c1ccc2c(c1)[nH]c1c3ccccc3sc21 | > 200 | > 200 µM | –
NC(=O)CNC(=O)C1CCCN1C(=O)C1CCCCNOC(=O)CCC(NC(=O)OCC2c3ccccc3-c3ccccc32)C(=O)NC(Cc2c[nH]c3ccccc23)C(=O)N1 (stereo unspecified) (Fmoc-EW[X2]PG-NH2; ester 1-3; configuration not given here) | 70.8 | > 100 µM | –
CCOC(=O)c1ccc(N2C(=O)Cc3ccccc3C2=O)cc1 | – | – | inactive
Clc1cnnc2nc[nH]c12 | > 1150 | 135 µM | –
CC12CCC3=C(CSC4=C3CSc3ccccc34)C1=CCCC2=O (stereo unspecified) | > 200 | > 200 µM | –
COC(=O)c1cc(C(CCl)c2cc(C(=O)OC)c(O)cc2C)c(C)cc1O | > 200 | 112 µM | –
COC(=O)C12c3ccccc3C(c3ccccc31)c1c(N=O)ccc(NO)c12 | > 19.5 | > 19.5 µM | –
O=C(Oc1ccc(OC(Oc2ccccc2)c2ccccc2)cc1)c1ccccc1 (stereo unspecified) | > 200 | 44.7 µM | –
OCCCSc1ccccc1SCCCO | > 52.5 | > 52.5 µM | –
Fc1ccc2nncc(SCc3ccc(Cl)c(Cl)c3)c2c1 | > 79.4 | > 79.4 µM | –
Cc1c(C(=N)N)oc2ccccc12 | – | – | inactive
Cc1noc2nccnc12 | > 186 | > 186 µM | –
